Results on 20 molecules are retold here after US10758534B2 (Vertex Pharmaceuticals Incorporated, priority 2014, dated 2020).

For the assay, the target named is T1, F508del (Homo sapiens, UniProt P13569, DEL508-508).
T1 construct: expressed in transfected cells
T1 sequence (P13569 with tags, fused parts or gaps DEL508-508): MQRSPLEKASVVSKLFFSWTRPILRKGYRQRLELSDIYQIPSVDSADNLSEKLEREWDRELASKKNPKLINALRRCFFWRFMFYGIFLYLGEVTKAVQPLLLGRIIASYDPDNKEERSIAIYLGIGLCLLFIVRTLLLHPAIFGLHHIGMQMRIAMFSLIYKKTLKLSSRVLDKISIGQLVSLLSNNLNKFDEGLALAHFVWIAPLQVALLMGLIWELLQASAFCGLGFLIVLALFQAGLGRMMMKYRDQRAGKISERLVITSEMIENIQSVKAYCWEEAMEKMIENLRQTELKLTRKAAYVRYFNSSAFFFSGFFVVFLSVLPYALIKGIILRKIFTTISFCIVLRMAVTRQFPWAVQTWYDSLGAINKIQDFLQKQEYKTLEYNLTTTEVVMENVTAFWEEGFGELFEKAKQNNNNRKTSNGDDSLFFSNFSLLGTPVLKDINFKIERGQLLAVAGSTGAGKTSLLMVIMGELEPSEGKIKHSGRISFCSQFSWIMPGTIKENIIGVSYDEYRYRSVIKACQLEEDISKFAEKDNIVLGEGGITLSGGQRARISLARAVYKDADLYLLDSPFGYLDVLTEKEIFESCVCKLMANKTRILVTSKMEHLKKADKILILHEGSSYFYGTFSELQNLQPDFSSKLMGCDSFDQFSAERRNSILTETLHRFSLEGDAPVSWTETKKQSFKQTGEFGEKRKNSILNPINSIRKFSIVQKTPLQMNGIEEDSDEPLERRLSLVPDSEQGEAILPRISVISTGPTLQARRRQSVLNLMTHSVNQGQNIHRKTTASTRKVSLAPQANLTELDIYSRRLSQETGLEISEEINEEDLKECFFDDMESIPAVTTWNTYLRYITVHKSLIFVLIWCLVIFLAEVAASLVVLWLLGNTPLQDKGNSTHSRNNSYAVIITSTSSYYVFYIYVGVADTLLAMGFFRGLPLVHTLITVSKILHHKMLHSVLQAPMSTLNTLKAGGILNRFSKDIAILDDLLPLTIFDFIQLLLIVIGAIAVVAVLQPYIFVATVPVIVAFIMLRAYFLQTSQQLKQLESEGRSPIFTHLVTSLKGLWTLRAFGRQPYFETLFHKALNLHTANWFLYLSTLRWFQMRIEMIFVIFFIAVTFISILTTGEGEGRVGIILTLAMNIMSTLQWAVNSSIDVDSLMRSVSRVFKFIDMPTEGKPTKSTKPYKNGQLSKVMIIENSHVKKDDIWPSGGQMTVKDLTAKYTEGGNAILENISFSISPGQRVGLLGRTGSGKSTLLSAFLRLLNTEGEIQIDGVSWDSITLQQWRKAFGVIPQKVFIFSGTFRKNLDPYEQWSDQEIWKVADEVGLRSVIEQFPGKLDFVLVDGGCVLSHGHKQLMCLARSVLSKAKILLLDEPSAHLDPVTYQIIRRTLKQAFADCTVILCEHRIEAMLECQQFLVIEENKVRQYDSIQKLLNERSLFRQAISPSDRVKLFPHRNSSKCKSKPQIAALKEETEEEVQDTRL
The experiment in a line: Protocol 1: membrane potential optical assay (FLIPR III, voltage sensing dye), identification of potentiator compounds. The following applies: Table 3, compounds of Table 1. Type of assay: cell-based. In short, it runs like this: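 Read-out: change in voltage-sensing dye fluorescence (FLIPR III) as a measure of F508del conductance. Temperature-corrected (27° C, 24 hrs) NIH 3T3 cells expressing F508del are pretreated with potentiators, dye-loaded, then stimulated with forskolin under a chloride ion gradient using chloride-free gluconate bath.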
Consider `Cc1cc(C)c(CN2CCc3ccccc3CC2C(=O)NS(=O)(=O)c2cccc(NCCO)n2)c(C)c1` (centres unmarked) [Compound 838, N-[[6-(2-hydroxyethylamino)-2-pyridyl]sulfonyl]-3-[(2,4,6-trimethylphenyl)methyl]-1,2,4,5-tetrahydro-3-benzazepine-4-carboxamide], for which the EC30 entry was “++ (“++” means between 3 uM and 10 uM)”.

Regarding `Cc1cc(C)c(Oc2cc(-c3cc(F)cc(OCC(C)C)c3)cnc2C(=O)NS(=O)(=O)c2cccc(N)n2)c(C)c1` [Compound 1456, N-[(6-amino-2-pyridyl)sulfonyl]-5-(3-fluoro-5-isobutoxy-phenyl)-3-(2,4,6-trimethylphenoxy)pyridine-2-carboxamide], the EC30 result is on record as “+++ (“+++” means <3 uM)”.

As for `CNC1CCN(S(=O)(=O)NC(=O)c2ccc(-c3cc(F)cc(OCC(C)C)c3)nc2N2CC(C)CC2(C)C)C1` (centres unmarked) [Compound 1554, 6-(3-fluoro-5-isobutoxy-phenyl)-N—[3-(methylamino)pyrrolidin-1-yl]sulfonyl-2-(2,2,4-trimethylpyrrolidin-1-yl)pyridine-3-carboxamide], the EC30 entry is “+++ (“+++” means <3 uM)”.

On to `CCOc1cccc2c1CN(Cc1cc(F)cc(OC)c1)C2(C)C(=O)NS(=O)(=O)c1cccc(N)n1` (centres unmarked) [Compound 1421, N-[(6-amino-2-pyridyl)sulfonyl]-4-ethoxy-2-[(3-fluoro-5-methoxy-phenyl)methyl]-1-methyl-isoindoline-1-carboxamide], for which the EC30 entry was “+++ (“+++” means <3 uM)”.

In the case of `Cc1cccc(C)c1Oc1nc(C(C)(C)C)ccc1C(=O)NS(=O)(=O)c1cccc(N)n1` [Compound 1243, N-[(6-amino-2-pyridyl)sulfonyl]-6-tert-butyl-2-(2,6-dimethylphenoxy)pyridine-3-carboxamide], the EC30 result is “+++ (“+++” means <3 uM)”.

Turning to `CC(C)COc1cc(F)cc(-c2ccc(C(=O)NS(=O)(=O)c3cccc(N)n3)c(N3CCC3C)n2)c1` (centres unmarked) [Compound 1840, N-[(6-amino-2-pyridyl)sulfonyl]-6-(3-fluoro-5-isobutoxy-phenyl)-2-(2-methylazetidin-1-yl)pyridine-3-carboxamide], the EC30 entry was “+++ (“+++” means <3 uM)”.

Regarding `Cc1cn(-c2ccc(C(=O)NS(=O)(=O)c3ccc[nH]c3=O)c(N3C[C@@H](C)CC3(C)C)n2)nc1OCC(C)C` [Compound 1743, 6-(3-isobutoxy-4-methyl-pyrazol-1-yl)-N-[(2-oxo-1H-pyridin-3-yl)sulfonyl]-2-[(4S)-2,2,4-trimethylpyrrolidin-1-yl]pyridine-3-carboxamide], the EC30 result is on record as “+++ (“+++” means <3 uM)”.

With `CC(C)COc1cc(F)cc(-c2ccc(C(=O)NS(=O)(=O)c3cccc(N)n3)c(N3CCC[C@H]3C(C)(C)C)n2)c1` [Compound 1097, N-[(6-amino-2-pyridyl)sulfonyl]-2-[(2S)-2-tert-butylpyrrolidin-1-yl]-6-(3-fluoro-5-isobutoxy-phenyl)pyridine-3-carboxamide], the EC30 result is recorded as “+++ (“+++” means <3 uM)”.

In the case of `Cc1ccccc1Oc1nc(C(C)(C)C)ccc1C(=O)NS(=O)(=O)c1cccc(N)n1` [Compound 1318, N-[(6-amino-2-pyridyl)sulfonyl]-6-tert-butyl-2-(2-methylphenoxy)pyridine-3-carboxamide], the EC30 result was “+++ (“+++” means <3 uM)”.

As for `CC1CN(c2ncccc2C(=O)NS(=O)(=O)c2cccc(Oc3cccc(C(C)(C)C)c3)n2)C(C)(C)C1` (centres unmarked) [Compound 1926, N—[[6-(3-tert-butylphenoxy)-2-pyridyl]sulfonyl]-2-(2,2,4-trimethylpyrrolidin-1-yl)pyridine-3-carboxamide], the EC30 entry is “+++ (“+++” means <3 uM)”.

Regarding `Cc1cc(C)c(Oc2nc(-c3ccc4ccn(C)c4c3)ccc2C(=O)NS(=O)(=O)c2cccc(N)n2)c(C)c1` [Compound 1056, N-[(6-amino-2-pyridyl)sulfonyl]-6-(1-methylindol-6-yl)-2-(2,4,6-trimethylphenoxy)pyridine-3-carboxamide], the EC30 result is reported as “+++ (“+++” means <3 uM)”.

Regarding `CCOc1cccc2c1CN(Cc1c(C)cc(C)cc1C)C2(C)C(=O)NS(=O)(=O)c1cnc(NC(C)=O)s1` (centres unmarked) [Compound 1555, N-(2-acetamidothiazol-5-yl)sulfonyl-4-ethoxy-1-methyl-2-[(2,4,6-trimethylphenyl)methyl]isoindoline-1-carboxamide], the EC30 entry is on record as “+++ (“+++” means <3 uM)”.

`CCOc1cccc2c1CN(Cc1c(C)cc(C)cc1C)C2(C)C(=O)NS(=O)(=O)c1ccc(N)cc1` (centres unmarked) [Compound 1480, N-(4-aminophenyl)sulfonyl-4-ethoxy-1-methyl-2-[(2,4,6-trimethylphenyl)methyl]isoindoline-1-carboxamide]: the EC30 result is “+++ (“+++” means <3 uM)”.

Take `Cc1cc(C)cc(-c2ccc(C(=O)NS(=O)(=O)N3CC[C@H](N)C3)c(N3C[C@@H](C)CC3(C)C)n2)c1` [Compound 1839, N-[(3S)-3-aminopyrrolidin-1-yl]sulfonyl-6-(3,5-dimethylphenyl)-2-[(4S)-2,2,4-trimethylpyrrolidin-1-yl]pyridine-3-carboxamide]: the EC30 result was “+++ (“+++” means <3 uM)”.

Take `COc1cccc(F)c1-c1ccc(C(=O)NS(=O)(=O)c2cccc(N)n2)c(Oc2c(C)cc(C)cc2C)n1` [Compound 920, N-[(6-amino-2-pyridyl)sulfonyl]-6-(2-fluoro-6-methoxy-phenyl)-2-(2,4,6-trimethylphenoxy)pyridine-3-carboxamide]: the EC30 result is “+++ (“+++” means <3 uM)”.

For the molecule `CC(C)COc1cc(F)cc(-c2ccc(C(=O)NS(=O)(=O)c3cccc(N)n3)c(OC3CCC3C3CC3)n2)c1` (centres unmarked) [Compound 1530, N-[(6-amino-2-pyridyl)sulfonyl]-2-(2-cyclopropylcyclobutoxy)-6-(3-fluoro-5-isobutoxy-phenyl)pyridine-3-carboxamide], the EC30 result is “+++ (“+++” means <3 uM)”.

Regarding `CC1CN(c2nc(C(C)(C)C)c(C#N)cc2C(=O)NS(=O)(=O)c2cccc(N)n2)C(C)(C)C1` (centres unmarked) [Compound 1419, N-[(6-amino-2-pyridyl)sulfonyl]-6-tert-butyl-5-cyano-2-(2,2,4-trimethylpyrrolidin-1-yl)pyridine-3-carboxamide], the EC30 entry is on record as “+++ (“+++” means <3 uM)”.

`CC(C)Oc1ccc(-c2ccc(C(=O)NS(=O)(=O)c3ccc[nH]c3=O)c(N3C[C@@H](C)CC3(C)C)n2)cc1` [Compound 1774, 6-(4-isopropoxyphenyl)-N-[(2-oxo-1H-pyridin-3-yl)sulfonyl]-2-[(4S)-2,2,4-trimethylpyrrolidin-1-yl]pyridine-3-carboxamide]: the EC30 entry is given as “+++ (“+++” means <3 uM)”.

Regarding `C[C@@H]1CN(c2nc(C3=CCCCO3)ccc2C(=O)NS(=O)(=O)c2cccc(N)n2)C(C)(C)C1` [Compound 1438, N-[(6-amino-2-pyridyl)sulfonyl]-6-(3,4-dihydro-2H-pyran-6-yl)-2-[(4S)-2,2,4-trimethylpyrrolidin-1-yl]pyridine-3-carboxamide], the EC30 entry was “+++ (“+++” means <3 uM)”.

As to `CC(C)(C)c1ccc(C(=O)NS(=O)(=O)c2cccc(N)n2)c(Oc2ccccc2)n1` [Compound 1046, N-[(6-amino-2-pyridyl)sulfonyl]-6-tert-butyl-2-phenoxy-pyridine-3-carboxamide], the EC30 entry was “++ (“++” means between 3 uM and 10 uM)”.
